From ChEMBL document CHEMBL4033774, “Class I HDAC Inhibitors: Potential New Epigenetic Therapeutics for Alcohol Use Disorder (AUD)” (J Med Chem, 2018)

Experiments:
[1] = biological target: T1, Histone deacetylase 3/Nuclear receptor corepressor 2 (HDAC3/NCoR2) (Homo sapiens, UniProt O15379); experiment: Inhibition of human full length C-terminal His-tagged HDAC3/N-terminal GST-tagged human NCOR2 (395 to 489 residues) co-expressed in baculovirus infected Sf9 insect cells preincubated for 3 hrs followed by fluorophore conjugated MAZ1600 substrate addition measured every 5 mins by fluorescence assay
Histone deacetylase 2 [2] = biological target: T2, Histone deacetylase 2 (Homo sapiens, UniProt Q92769); experiment: Inhibition of human full length C-terminal His/FLAG-tagged HDAC2 expressed in baculovirus infected Sf9 cells preincubated for 3 hrs followed by fluorophore conjugated MAZ1600 substrate addition measured every 5 mins by fluorescence assay
Histone deacetylase 1 [3] = biological target: T3, Histone deacetylase 1 (Homo sapiens, UniProt Q13547); experiment: Inhibition of recombinant full length human C-terminal FLAG/His-tagged HDAC1 expressed in baculovirus infected sf9 cells preincubated for 3 hrs followed by fluorophore conjugated MAZ1600 substrate addition measured every 5 mins by fluorescence assay
[4] = biological target: T1, Histone deacetylase 3/Nuclear receptor corepressor 2 (HDAC3/NCoR2); experiment: Inhibition of human full length C-terminal His-tagged HDAC3/N-terminal GST-tagged human NCOR2 co-expressed in baculovirus infected Sf9 insect cells after 1 hr in presence of acetylated lysine substrate by fluorescence assay
Homo sapiens = organism: Homo sapiens; experiment: Selectivity ratio of IC50 for human full length C-terminal His/FLAG-tagged HDAC1 expressed in baculovirus infected Sf9 insect cells to IC50 for human full length C-terminal His-tagged HDAC2 expressed in baculovirus infected Sf9 insect cells
Histone deacetylase 1 [5] = biological target: T3, Histone deacetylase 1; experiment: Inhibition of human full length C-terminal His/FLAG-tagged HDAC1 expressed in baculovirus infected Sf9 insect cells after 1 hr in presence of acetylated lysine substrate by fluorescence assay
Histone deacetylase 2 [6] = biological target: T2, Histone deacetylase 2; experiment: Inhibition of human full length C-terminal His-tagged HDAC2 expressed in baculovirus infected Sf9 insect cells after 1 hr in presence of acetylated lysine substrate by fluorescence assay

T2 sequence (Q92769 whole entry): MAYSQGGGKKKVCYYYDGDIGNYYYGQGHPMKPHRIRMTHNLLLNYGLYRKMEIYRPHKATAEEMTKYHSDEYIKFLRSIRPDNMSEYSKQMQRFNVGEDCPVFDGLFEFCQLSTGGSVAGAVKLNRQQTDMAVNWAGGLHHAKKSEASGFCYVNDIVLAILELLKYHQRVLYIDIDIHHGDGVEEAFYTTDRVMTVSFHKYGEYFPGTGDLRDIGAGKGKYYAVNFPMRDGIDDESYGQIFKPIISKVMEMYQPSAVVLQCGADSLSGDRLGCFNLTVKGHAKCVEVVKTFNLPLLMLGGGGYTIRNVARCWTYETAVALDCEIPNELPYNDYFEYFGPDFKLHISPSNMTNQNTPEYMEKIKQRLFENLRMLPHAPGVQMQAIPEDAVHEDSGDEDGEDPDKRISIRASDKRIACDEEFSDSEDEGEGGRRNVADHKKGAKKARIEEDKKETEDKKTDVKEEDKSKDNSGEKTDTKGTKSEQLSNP
T3 sequence (Q13547 whole entry): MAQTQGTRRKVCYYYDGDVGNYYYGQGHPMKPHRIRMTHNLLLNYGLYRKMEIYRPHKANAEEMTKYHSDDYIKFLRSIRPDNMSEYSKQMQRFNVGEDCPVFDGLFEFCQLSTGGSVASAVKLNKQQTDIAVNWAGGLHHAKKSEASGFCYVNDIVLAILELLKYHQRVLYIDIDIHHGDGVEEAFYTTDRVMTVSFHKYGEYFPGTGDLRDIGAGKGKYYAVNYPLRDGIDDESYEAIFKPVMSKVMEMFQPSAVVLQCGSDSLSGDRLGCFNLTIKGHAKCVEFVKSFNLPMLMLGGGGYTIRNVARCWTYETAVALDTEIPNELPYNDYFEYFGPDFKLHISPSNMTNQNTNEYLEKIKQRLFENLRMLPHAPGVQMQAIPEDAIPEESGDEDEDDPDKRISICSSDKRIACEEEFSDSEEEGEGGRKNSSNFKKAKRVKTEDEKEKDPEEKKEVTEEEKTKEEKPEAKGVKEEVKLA
T1 sequence (O15379 whole entry, the tested form may be a part): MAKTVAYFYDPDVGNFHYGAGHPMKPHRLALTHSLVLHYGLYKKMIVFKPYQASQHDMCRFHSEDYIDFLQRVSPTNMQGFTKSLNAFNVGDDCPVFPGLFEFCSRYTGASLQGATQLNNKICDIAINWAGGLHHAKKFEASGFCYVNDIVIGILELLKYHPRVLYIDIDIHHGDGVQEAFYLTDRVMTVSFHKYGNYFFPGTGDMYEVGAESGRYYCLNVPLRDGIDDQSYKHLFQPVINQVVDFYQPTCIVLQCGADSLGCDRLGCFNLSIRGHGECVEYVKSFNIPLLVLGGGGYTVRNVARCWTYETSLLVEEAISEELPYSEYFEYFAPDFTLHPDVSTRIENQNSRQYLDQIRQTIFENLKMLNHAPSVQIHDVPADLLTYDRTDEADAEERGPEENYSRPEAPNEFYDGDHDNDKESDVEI
T1 sequence (Q9Y618 whole entry, further chain, the tested form may be a part): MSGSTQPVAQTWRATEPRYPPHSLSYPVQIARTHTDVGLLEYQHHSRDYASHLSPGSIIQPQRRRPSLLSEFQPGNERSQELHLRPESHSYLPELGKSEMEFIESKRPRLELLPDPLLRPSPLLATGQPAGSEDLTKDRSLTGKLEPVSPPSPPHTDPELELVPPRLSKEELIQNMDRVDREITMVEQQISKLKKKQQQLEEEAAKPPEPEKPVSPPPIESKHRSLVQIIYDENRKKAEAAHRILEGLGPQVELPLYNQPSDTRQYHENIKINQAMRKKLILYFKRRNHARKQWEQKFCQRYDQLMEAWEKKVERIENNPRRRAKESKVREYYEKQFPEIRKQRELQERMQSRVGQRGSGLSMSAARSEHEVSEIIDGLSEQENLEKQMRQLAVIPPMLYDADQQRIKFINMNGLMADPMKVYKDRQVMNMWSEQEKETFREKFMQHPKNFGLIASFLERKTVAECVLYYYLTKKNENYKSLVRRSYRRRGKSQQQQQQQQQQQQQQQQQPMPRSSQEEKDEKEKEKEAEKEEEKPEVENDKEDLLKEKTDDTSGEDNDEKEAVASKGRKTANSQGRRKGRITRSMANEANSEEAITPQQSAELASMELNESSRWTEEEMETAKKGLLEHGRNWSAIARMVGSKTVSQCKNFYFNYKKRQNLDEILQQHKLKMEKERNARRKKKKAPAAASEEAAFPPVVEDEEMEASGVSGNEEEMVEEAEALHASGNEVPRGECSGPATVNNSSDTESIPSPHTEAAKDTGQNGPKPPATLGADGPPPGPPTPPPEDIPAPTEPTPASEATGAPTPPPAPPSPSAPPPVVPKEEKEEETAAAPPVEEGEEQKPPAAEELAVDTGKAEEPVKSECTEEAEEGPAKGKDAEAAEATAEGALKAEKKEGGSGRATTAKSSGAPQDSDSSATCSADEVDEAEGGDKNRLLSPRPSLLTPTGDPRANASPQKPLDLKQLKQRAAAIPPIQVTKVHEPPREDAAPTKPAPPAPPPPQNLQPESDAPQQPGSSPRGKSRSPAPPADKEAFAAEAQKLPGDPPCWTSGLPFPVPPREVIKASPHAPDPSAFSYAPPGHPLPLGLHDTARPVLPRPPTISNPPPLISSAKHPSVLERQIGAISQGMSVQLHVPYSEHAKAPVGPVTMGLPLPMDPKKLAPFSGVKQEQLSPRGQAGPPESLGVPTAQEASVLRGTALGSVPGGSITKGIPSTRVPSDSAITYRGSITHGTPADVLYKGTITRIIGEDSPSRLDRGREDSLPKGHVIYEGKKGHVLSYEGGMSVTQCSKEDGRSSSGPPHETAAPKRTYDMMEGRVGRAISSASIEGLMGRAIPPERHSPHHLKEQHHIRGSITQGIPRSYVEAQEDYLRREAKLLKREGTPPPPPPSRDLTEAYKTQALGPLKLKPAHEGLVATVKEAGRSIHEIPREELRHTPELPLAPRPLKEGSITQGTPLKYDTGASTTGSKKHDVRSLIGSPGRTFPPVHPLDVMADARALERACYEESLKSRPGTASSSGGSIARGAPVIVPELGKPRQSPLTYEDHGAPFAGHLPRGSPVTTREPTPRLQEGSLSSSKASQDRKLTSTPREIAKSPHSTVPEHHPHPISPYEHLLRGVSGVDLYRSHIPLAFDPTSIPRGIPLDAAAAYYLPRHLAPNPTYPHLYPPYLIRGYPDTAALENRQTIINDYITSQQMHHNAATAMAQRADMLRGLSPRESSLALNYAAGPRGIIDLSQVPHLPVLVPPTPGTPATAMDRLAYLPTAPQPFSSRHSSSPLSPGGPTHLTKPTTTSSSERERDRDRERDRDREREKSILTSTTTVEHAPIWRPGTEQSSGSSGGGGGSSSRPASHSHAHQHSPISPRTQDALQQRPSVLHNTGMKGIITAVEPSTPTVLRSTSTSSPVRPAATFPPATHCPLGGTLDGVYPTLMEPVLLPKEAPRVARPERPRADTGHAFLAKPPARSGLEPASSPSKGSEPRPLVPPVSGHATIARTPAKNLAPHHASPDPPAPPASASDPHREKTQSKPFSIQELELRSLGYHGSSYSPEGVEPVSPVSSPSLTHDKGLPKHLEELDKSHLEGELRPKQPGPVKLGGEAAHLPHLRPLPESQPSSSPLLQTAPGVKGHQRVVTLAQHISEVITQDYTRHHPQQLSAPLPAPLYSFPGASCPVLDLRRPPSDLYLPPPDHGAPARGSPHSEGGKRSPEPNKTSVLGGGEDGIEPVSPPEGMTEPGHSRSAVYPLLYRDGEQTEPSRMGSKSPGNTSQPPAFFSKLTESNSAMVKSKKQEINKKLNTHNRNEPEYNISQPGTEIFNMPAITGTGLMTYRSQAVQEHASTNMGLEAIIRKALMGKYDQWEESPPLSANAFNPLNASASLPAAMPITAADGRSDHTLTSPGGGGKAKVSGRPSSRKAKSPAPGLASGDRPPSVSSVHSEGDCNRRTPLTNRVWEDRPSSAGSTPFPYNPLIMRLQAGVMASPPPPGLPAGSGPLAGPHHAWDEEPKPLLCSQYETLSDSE

| IC50 [1] [nM] | IC50 (Histone deacetylase 2 [2]) [nM] | IC50 (Histone deacetylase 1 [3]) [nM] | Compound | IC50 [4] [nM] | Ratio IC50 (Homo sapiens) | IC50 (Histone deacetylase 1 [5]) [nM] | IC50 (Histone deacetylase 2 [6]) [nM] |
| --- | --- | --- | --- | --- | --- | --- | --- |
| 1300 | 560 | 69 | C[C@H](CO)N1C[C@H](C)[C@H](CN(C)Cc2ccc(C(=O)Nc3ccccc3N)cc2)Oc2ccc(N(C)C)cc2CC1=O | – | – | – | – |
| – | – | – | O=C(/C=C(\CO)c1ccccc1)c1ccccc1 | 50000 | 20 | 2740 | 170 |
